# Results taken from PMC4303869 (Scientific Reports, 2015).
# Molecular target: Aβ42 (amyloid β-protein 42) (Homo sapiens, UniProt P05067)
# Experiment: ThT fluorescence fibrillogenesis assay
# Type: biochemical
# Sequence of Aβ42 (amyloid β-protein 42) (P05067 672-713): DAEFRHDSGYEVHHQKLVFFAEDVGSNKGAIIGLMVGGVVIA
row,IC50 [nM],Compound
1,2400 ± 400,O=C(O[C@@H]1Cc2c(O)cc(O)cc2O[C@@H]1c1cc(O)c(O)c(O)c1)c1cc(O)c(O)c(O)c1 [EGCG]
2,1500 ± 300,Oc1ccc2c(c1)OC[C@]1(O)Cc3cc(O)c(O)cc3[C@H]21 [brazilin]
